Counter-ions that a name gives are not always drawn.
Columns and labels:
RET = target: T1, RET (Homo sapiens, UniProt P07949); test: Inhibition of RET kinase activity, recombinant RET method (Kinase-Glo); format: biochemical; details: RET 2 μg/ml, poly-EY4 substrate, 20 μM ATP, two hours at 30° C.
T1 construct: purchased Upstate 14-570MG
Outline: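 Recombinant RET at 2 μg/ml in 20 mM MOPS/NaOH pH 7.0, 1 mM EDTA, 5% glycerol, 0.01% Brij35, 0.1% 2-mercaptoethanol, 1 mg/ml BSA; compounds 10 nM–30 μM final.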

PIM-1 = target: T2, PIM-1 (Homo sapiens, UniProt P11309); test: Inhibition of kinase PIM-1 (Kinase-Glo); format: biochemical; details: PIM-1 0.625 μg/ml, 10 μM ATP, forty minutes at 30° C.
T2 construct: purchased Upstate 14-573
T2 sequence (P11309 whole entry): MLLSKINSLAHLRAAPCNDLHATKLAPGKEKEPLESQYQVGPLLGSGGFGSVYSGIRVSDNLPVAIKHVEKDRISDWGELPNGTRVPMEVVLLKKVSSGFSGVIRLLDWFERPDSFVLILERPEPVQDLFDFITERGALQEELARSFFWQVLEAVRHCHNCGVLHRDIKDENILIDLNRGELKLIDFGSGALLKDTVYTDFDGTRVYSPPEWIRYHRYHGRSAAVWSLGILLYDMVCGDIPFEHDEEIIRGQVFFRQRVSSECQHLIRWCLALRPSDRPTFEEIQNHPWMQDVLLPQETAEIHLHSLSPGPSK
Procedure: Protein PIM-1 (Upstate #14-573 batch 25864U) is incubated at a concentration of 0.625 μg/ml in a buffer containing 8 mM of MOPS/NaOH pH7, 0.2 mM EDTA, 5 mM MgAc (Sigma #229768), 0.01% Triton Tx100, in the presence of 70 μM of peptide substrate S6 Kinase/Rsk2 (Upstate #12-243), and 10 μM of ATP.
The dilution buffer for PIM-1 is as follows: 20 mM MOPS/NaOH pH7, 1 mM EDTA, 5% glycerol, 0.01% Brij35, 0.1% 2-mercapto, 1 mg/ml BSA
The compound to be tested is first added to the enzyme to give a reaction volume of 50 μl. The dilution of the compounds of the invention is distributed so as to obtain a scale of final concentrations between 10 nM and 30 μM.
After incubation of the reaction mixture for forty minutes at 30° C., the level of ATP that remains is assayed using the Kinase-Glo Luminescent Kinase Assay (Promega #V6712) according to the conditions recommended by the supplier. The luminescence induced is read in a plate reader (Envision-Perkin Elmer).

T1 sequence (P07949 29-1114): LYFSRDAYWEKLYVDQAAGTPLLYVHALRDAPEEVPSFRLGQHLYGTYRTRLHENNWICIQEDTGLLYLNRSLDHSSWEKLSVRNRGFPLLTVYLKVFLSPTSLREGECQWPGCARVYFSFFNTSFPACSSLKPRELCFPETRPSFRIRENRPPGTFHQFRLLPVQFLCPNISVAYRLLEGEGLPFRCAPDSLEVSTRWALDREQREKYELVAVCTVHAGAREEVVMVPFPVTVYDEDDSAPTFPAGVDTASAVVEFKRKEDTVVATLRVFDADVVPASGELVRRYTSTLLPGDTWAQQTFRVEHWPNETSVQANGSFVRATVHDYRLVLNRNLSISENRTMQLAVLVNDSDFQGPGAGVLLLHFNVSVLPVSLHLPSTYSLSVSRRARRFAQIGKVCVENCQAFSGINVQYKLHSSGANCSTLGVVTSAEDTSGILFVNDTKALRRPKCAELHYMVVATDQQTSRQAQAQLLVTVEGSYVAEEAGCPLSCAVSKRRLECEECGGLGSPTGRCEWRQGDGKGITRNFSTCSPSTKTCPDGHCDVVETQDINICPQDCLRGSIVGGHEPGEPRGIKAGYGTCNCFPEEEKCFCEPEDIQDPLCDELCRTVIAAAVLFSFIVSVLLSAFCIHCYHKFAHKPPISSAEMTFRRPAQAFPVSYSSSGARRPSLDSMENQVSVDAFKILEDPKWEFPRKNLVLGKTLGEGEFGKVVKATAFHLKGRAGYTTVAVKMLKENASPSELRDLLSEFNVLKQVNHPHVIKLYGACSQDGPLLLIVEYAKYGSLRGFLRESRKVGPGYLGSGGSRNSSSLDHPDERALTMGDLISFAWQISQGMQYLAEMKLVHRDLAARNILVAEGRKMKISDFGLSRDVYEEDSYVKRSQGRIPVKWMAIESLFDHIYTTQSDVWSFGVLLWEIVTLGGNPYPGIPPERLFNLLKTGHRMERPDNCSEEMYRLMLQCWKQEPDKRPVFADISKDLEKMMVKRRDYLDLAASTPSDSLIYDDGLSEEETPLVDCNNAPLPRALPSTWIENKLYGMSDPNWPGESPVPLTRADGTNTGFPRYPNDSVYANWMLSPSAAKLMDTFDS

Row | SMILES | IC50 (RET) | IC50 (PIM-1)
1 | CCOC(=O)c1c[nH]c2c(=O)[nH]c3ccc(-c4ccnc(N)n4)cc3c12 [Compound 261, 8-(2-Amino-pyrimidin-4-yl)-4-oxo-4,5-dihydro-3H-pyrrolo[2,3-c]quinoline-1-ethyl carboxylate] | 0.1 to 1 µM | 10 to 100 µM
2 | O=C(OCC1CCOC1)c1c[nH]c2c(=O)[nH]c3ccc(S(=O)(=O)NC4CCNCC4)cc3c12 (stereo not drawn) [Compound 118, 4-Oxo-8-(piperidin-4-ylsulfamoyl)-4,5-dihydro-3H-pyrrolo[2,3-c]quinoline-1-methyltetrahydrofuran-3-yl carboxylate] | 0.1 to 1 µM | 10 to 100 µM
3 | CCOC(=O)c1c[nH]c2c(=O)[nH]c3ccc(-c4csc(N)n4)cc3c12 [Compound 270, 8-(2-Amino-thiazol-4-yl)-4-oxo-4,5-dihydro-3H-pyrrolo[2,3-c]quinoline-1-ethyl carboxylate] | 0.1 to 1 µM | 10 to 100 µM
4 | CCOC(=O)c1c[nH]c2c(=O)[nH]c3ccc(S(=O)(=O)NCC4CCNCC4)cc3c12 [Compound 121, 4-Oxo-8-[(piperidin-4-ylmethyl)-sulfamoyl]-4,5-dihydro-3H-pyrrolo[2,3-c]quinoline-1-ethyl carboxylate] | 1 to 10 µM | 1 to 10 µM
5 | CCOC(=O)c1c[nH]c2c(=O)[nH]c3ccc([N+](=O)[O-])cc3c12 [Compound 66, 8-Nitro-4-oxo-4,5-dihydro-3H-pyrrolo[2,3-c]quinoline-1-ethyl carboxy late] | 1 to 10 µM | 1 to 10 µM
6 | CCOC(=O)c1c[nH]c2c(=O)[nH]c3ccc(-c4ccnc(NC)n4)cc3c12 [Compound 263, 8-(2-Methylamino-pyrimidin-4-yl)-4-oxo-4,5-dihydro-3H-pyrrolo[2,3-c]quinoline-1-ethyl carboxylate formate] | 0.1 to 1 µM | 1 to 10 µM
7 | CCOC(=O)c1c[nH]c2c(=O)[nH]c3ccc(SCc4ccccc4)cc3c12 [Compound 222, 8-Benzylsulfanyl-4-oxo-4,5-dihydro-3H-pyrrolo[2,3-c]quinoline-1-ethyl carboxylate] | 0.1 to 1 µM | 1 to 10 µM
8 | CCOC(=O)c1c[nH]c2c(=O)[nH]c3ccc(-c4ccnc(N(C)CCN(C)C)n4)cc3c12 [Compound 269, 8-{2-[(2-Dimethylamino-ethyl)-methyl-amino]-pyrimidin-4-yl}-4-oxo-4,5-dihydro-3H-pyrrolo[2,3-c]quinoline-1-ethyl carboxylate formate] | 1 to 10 µM | 1 to 10 µM
9 | CCOC(=O)c1c[nH]c2c(=O)[nH]c3ccc(/C=C/c4ccccc4)cc3c12 [Compound 70, 4-Oxo-8-styryl-4,5-dihydro-3H-pyrrolo[2,3-c]quinoline-1-ethyl carboxylate] | 1 to 10 µM | 1 to 10 µM
10 | CCOC(=O)c1c[nH]c2c(=O)[nH]c3ccc(S(=O)(=O)N(C)c4cccc(Cl)c4)cc3c12 [Compound 34, 8-[(3-Chlorophenyl)-methyl-sulfamoyl)-4-oxo-4,5-dihydro-3H-pyrrolo[2,3-c]quinoline-1-ethyl carboxylate] | 0.1 to 1 µM | 1 to 10 µM
11 | CCOC(=O)c1c[nH]c2c(=O)[nH]c3ccc(-c4ccc(Cl)nc4)cc3c12 [Compound 259, 8-(6-Chloro-pyridin-3-yl)-4-oxo-4,5-dihydro-3H-pyrrolo[2,3-c]quinoline-1-ethyl carboxylate] | 1 to 10 µM | 1 to 10 µM
12 | CCOC(=O)c1c[nH]c2c(=O)[nH]c3ccc(-c4cccc(CNC)c4)cc3c12 [Compound 241, 8-(3-Methylaminomethyl-phenyl)-4-oxo-4,5-dihydro-3H-pyrrolo[2,3-c]quinoline-1-ethyl carboxylate] | 0.1 to 1 µM | 1 to 10 µM
13 | O=C(OC1CCCC1)c1c[nH]c2c(=O)[nH]c3ccc(S(=O)(=O)NC4CCNCC4)cc3c12 [Compound 116, 4-Oxo-8-(piperidin-4-ylsulfamoyl)-4,5-dihydro-3H-pyrrolo[2,3-c]quinoline-1-cyclopentyl carboxylate] | < 0.1 µM | 1 to 10 µM
14 | CCOC(=O)c1c[nH]c2c(=O)[nH]c3ccc(N)cc3c12 [Compound 64, 8-Amino-4-oxo-4,5-dihydro-3H-pyrrolo[2,3-c]quinoline-1-ethyl carboxylate] | 1 to 10 µM | 10 to 100 µM
15 | CCOC(=O)c1c[nH]c2c(=O)[nH]c3ccc(I)cc3c12 [Compound 209, 8-Iodo-4-oxo-4,5-dihydro-3H-pyrrolo[2,3-c]quinoline-1-ethyl carboxylate] | 0.1 to 1 µM | 0.1 to 1 µM
16 | CN(C)CCNC(=O)c1c[nH]c2c(=O)[nH]c3ccccc3c12 [Compound 79, N-(2-Dimethylamino-ethyl)-4-oxo-4,5-dihydro-3H-pyrrolo[2,3-c]quinoline-1-carboxamide] | 10 to 100 µM | 10 to 100 µM
17 | CCOC(=O)c1c[nH]c2c(=O)[nH]c3ccc(Br)cc3c12 [Compound 71, 8-Bromo-4-oxo-4,5-dihydro-3H-pyrrolo[2,3-c]quinoline-1-ethyl carboxylate] | 0.1 to 1 µM | 1 to 10 µM
18 | CCOC(=O)c1c[nH]c2c(=O)[nH]c3ccc(-c4ccnc(N5CCN(C(C)=O)CC5)n4)cc3c12 [Compound 268, 8-[2-(4-Acetyl-piperazin-1-yl)-pyrimidin-4-yl]-4-oxo-4,5-dihydro-3H-pyrrolo[2,3-c]quinoline-1-ethyl carboxylate] | 1 to 10 µM | 1 to 10 µM
19 | CCOC(=O)c1c[nH]c2c(=O)[nH]c3ccc(-c4ccc(N)cc4)cc3c12 [Compound 244, 8-(4-Aminophenyl)-4-oxo-4,5-dihydro-3H-pyrrolo[2,3-c]quinoline-1-ethyl carboxylate] | 0.1 to 1 µM | 0.1 to 1 µM
20 | COC(=O)c1c[nH]c2c(=O)[nH]c3ccc(S(=O)(=O)N4CCN(C)CC4)cc3c12 [Compound 95, 8-(4-Methyl-piperazine-1-sulfonyl)-4-oxo-4,5-dihydro-3H-pyrrolo[2,3-c]quinoline-1-methyl carboxylate] | 1 to 10 µM | 10 to 100 µM
21 | CCOC(=O)c1c[nH]c2c(=O)[nH]c3ccc(-c4ccnc(N(C)C)n4)cc3c12 [Compound 262, 8-(2-Dimethylamino-pyrimidin-4-yl)-4-oxo-4,5-dihydro-3H-pyrrolo[2,3-c]quinoline-1-ethyl carboxylate] | 1 to 10 µM | 1 to 10 µM
22 | CCOC(=O)c1c[nH]c2c(=O)[nH]c3ccc(NC)cc3c12 [Compound 63, 8-Methylamino-4-oxo-4,5-dihydro-3H-pyrrolo[2,3-c]quinoline-1-ethyl carboxylate hydrochloride] | 1 to 10 µM | 10 to 100 µM
23 | CCOC(=O)c1c[nH]c2c(=O)[nH]c3ccc(SC4CCCCC4)cc3c12 [Compound 221, 8-Cyclohexylsulfanyl-4-oxo-4,5-dihydro-3H-pyrrolo[2,3-c]quinoline-1-ethyl carboxylate] | 0.1 to 1 µM | 1 to 10 µM
24 | CCOC(=O)c1c[nH]c2c(=O)[nH]c3ccc(-c4csc(C5CCNCC5)n4)cc3c12 [Compound 277, 4-Oxo-8-(2-piperidin-4-yl-thiazol-4-yl)-4,5-dihydro-3H-pyrrolo[2,3-c]quinoline-1-ethyl carboxylate] | 0.1 to 1 µM | 1 to 10 µM

Reference: US8426437B2, “Pyrroloquinoline derivatives and their use as protein kinases inhibitors” (Pierre Fabre Medicament, priority 2005, dated 2013)
